Measured values: patent US4406903A, “Xanthine derivatives useful as antidepressives” (John Wyeth and Brother Limited, priority 1981, dated 1983)
Counter-ions that a name gives are not always drawn.

What was measured:
[1] = tested on: 5-hydroxytryptamine reuptake; experiment: Inhibition of 5-hydroxytryptamine reuptake in rat cortical synaptosomes (Procedure 2); assay type: biochemical; conditions: for Selectivity Ratio (5-HT uptake over NA uptake): from IC50 values of NA and 5-HT uptake; for IC50: 10^-7 M 14C-5-hydroxytryptamine, 37° C., 4 min, pH 7.4, read-out: 5-HT Uptake IC50
Excerpt: (§1) Inhibition of 5-hydroxytryptamine and L-noradrenaline reuptake in rat cortical synaptosomes
(§2) "The isolation of nerve endings from brain: An electron microscopic study of cell fragments dervied by homogenisation and centrifugation."
(§3) Test object: Purified rat cortical synaptosomes (P2 B) from 8-10 male albino rats (190-250 g).
Procedure: Rats are stunned and then killed by decapitation. The brain is quickly removed and the cortex excised essentially free of striatum and mid-brain. […] The homogenate of concentration 10% w/v in 0.32 sucrose is centrifuged at an average centrifugal force of 1000×g for 10 minutes and the supernatant is decanted and centrifuged at an average of 10000×g for 20 min to obtain the crude mitochondrial pellet (P2). […] The synaptosomes are then centrifuged in a swing-out rotor at 97 000×g average for 30 min. […] (2 ml/g original tissue). Throughout the procedure, it is essential to maintain the tissue and synaptosomes at […]. Synaptosomes should be used within three hours of preparation. A 100 μl aliquot of this synaptosomal suspension (2.5-3.0 mg protein/ml) is added to the incubation medium (900 μl) which has been preincubated at 37° C. for 5 min. […] All reagents are of `Analar` grade and glass distilled water is used.
The quantity of material prepared per experiment would normally be sufficient to examine the effects of 30 different treatments (e.g. 6 compounds each at 5 concentrations in triplicate). […] The filters are then washed with 2.4 ml incubation medium. The radioactivity retained on the filter is determined by the addition of Instagel (10 ml) (Packard) and subsequent liquid scintillation counting to convert results into dpm. The non-specific binding and passive accumulation of both amines is corrected for by determining uptake in a sodium-free medium. Percentage inhibition of uptake is calculated as [formula] where background dpm is that accumulated in a sodium-free medium.
Assays are run in triplicate, with 2 or 3 control and background determinations inserted randomly. The selectivity ratio is calculated as: [formula]

L-noradrenaline reuptake = experiment: Inhibition of L-noradrenaline reuptake in rat cortical synaptosomes (Procedure 2); assay type: biochemical; conditions: 10^-7 M 3H-L-noradrenaline, 37° C., 4 min, pH 7.4, read-out: NA Uptake IC50
Excerpt: as §1
Ref: E. G. Gray and V. P. Whittaker (1962). J. Anat 96, p 79-88.
as §2, §3
Procedure: Rats are stunned and then killed by decapitation. The brain is quickly removed and the cortex excised essentially free of striatum and mid-brain. The tissue is then gently homogenised (10 strokes at 840 rpm) in 0.32 M sucrose. […]
Test compounds may be present in 4 to 6 concentrations depending on previous experience, but normally the range would be 10^-9 M to 10^-6 M for an active compound. The quantity of material prepared per experiment would normally be sufficient to examine the effects of 30 different treatments (e.g. 6 compounds each at 5 concentrations in triplicate). […] The radioactivity retained on the filter is determined by the addition of Instagel (10 ml) (Packard) and subsequent liquid scintillation counting to convert results into dpm. […] Percentage inhibition of uptake is calculated as [formula] where background dpm is that accumulated in a sodium-free medium. […]

[2] = tested on: 5-hydroxytryptamine uptake; experiment: Inhibition of 5-Hydroxytryptamine Uptake in Brain Slices (Procedure 1); assay type: cell-based, rat; conditions: for inhibition at 0.1 µM / inhibition at 1 µM / inhibition at 10 µM: rat cerebral cortex slices, 3H 5-hydroxytryptamine 10^-7 M; for Inhibition of 5-hydroxytryptamine uptake, potency ratio compared with imipramine: IC50-based ratio versus imipramine, rat brain slices; for Potency in 5-hydroxytryptamine tests (in words, versus imipramine): qualitative comparison with the standard inhibitor imipramine
Description: (§4) Inhibition of 5-Hydroxytryptamine or Noradrenaline Uptake in Brain Slices
Two rates (weighing 170-200 g) are decapitated and the brains rapidly removed and placed in ice-cold Krebs solution. The cerebral cortex on each side of the median line is opened out flat and cut to give two slabs of even thickness. The slabs are weighed and then sliced on a McIlwain tissue chopper. The tissue is sliced twice, the second cutting being at an angle of 45° to the first. The interval of cutting is 0.1 mm. The slices are transferred to a 5 ml conical flask and Krebs solution is added in the proportion 5 ml/g tissue. The slices are dispersed in the solution by sucking up and down in a Pasteur pipette. When a satisfactory suspension is achieved it is pipetted in 50 μl portions into 25 ml conical flasks containing 4.5 ml chilled Krebs solution. An Eppendorf pipette with the tip cut back to about 1 mm diameter is used. The suspension is kept well mixed at this stage so that each portion taken contains the same amount of tissue (~10 mg). The flasks are gassed with 95% O2 /5% CO2 and sealed with aluminium foil. They are then placed in a water bath at 27° for 15 minutes pre-incubation.
Flasks in groups of four are then each treated by an addition in 0.5 ml. to achieve the following concentrations in the medium. […]
______________________________________
GROUP CONCENTRATION (CONCENTRATION)
A 10^-7 M TEST COMPOUND (10^-5 M)
B 10^-7 M IMIPRAMINE (10^-5 M)
C 10^-7 M IMIPRAMINE (10^-6 M)
D 10^-7 M IMIPRAMINE (10^-7 M)
After 20 minutes incubation the slices are filtered off in filter funnels connected to a vacuum line. Each flask in rinsed with 5 ml Krebs which is also poured through the filter funnel followed by a further 5 ml Krebs. For group F the treatment differs in that ^3 H 5-hydroxytryptamine in 0.5 ml is added immediately before filtration. This gives an estimation of the amount of activity retained by the filter from the solution together with the amount of non-specific binding by the tissue.
(§5) The filter papers are placed in scintillation vials and soaked in 4 ml ethanol/methanol (3:1 v/v) for at least 45 minutes before addition of 10 ml liquid scintillator after which the samples are counted in a liquid scintillation counter.
(§6) Uptake inhibition is expressed as follows: [formula] […] In this case a dose response experiment is carried out with the test compound and impramine at concentrations of 10^-5 M, 10^-6 M and 10^-7 M. The % inhibition is again calculated in the same way and the results are plotted as % inhibition against log compound concentration. The molar concentration which inhibits uptake by 50% (IC50) is determined. The potency ratio compared to imipramine is calculated as: [formula]

noradrenaline uptake = experiment: Inhibition of Noradrenaline Uptake in Brain Slices (Procedure 1); assay type: cell-based, rat; conditions: 3H-noradrenaline 10^-7 M; active if % inhibition at 10^-6 M is at least that of imipramine at 10^-7 M
Description: as §4
Two rates (weighing 170-200 g) are decapitated and the brains rapidly removed and placed in ice-cold Krebs solution. The cerebral cortex on each side of the median line is opened out flat and cut to give two slabs of even thickness. The slabs are weighed and then sliced on a McIlwain tissue chopper. The tissue is sliced twice, the second cutting being at an angle of 45° to the first. The interval of cutting is 0.1 mm. The slices are transferred to a 5 ml conical flask and Krebs solution is added in the proportion 5 ml/g tissue. The slices are dispersed in the solution by sucking up and down in a Pasteur pipette. […]
as §5
as §6, with “compound concentration. […] The potency” for “compound concentration. The molar concentration which inhibits uptake by 50% (IC50) is determined. The potency”, “as: [formula] […]” for “as: [formula]”

Row | Compound | Selectivity Ratio (5-HT uptake over NA uptake) ([1]; rat cortical synaptosomes) | Selectivity of action (in words) ([1]; qualitative, 5-HT versus NA uptake) | Inhibition of 5-HT uptake (in words) ([1]; qualitative, rat cortical synaptosomes) | IC50 ([1]; rat cortical synaptosomes) | IC50 (L-noradrenaline reuptake) | inhibition at 0.1 µM [2] | inhibition at 1 µM [2] | inhibition at 10 µM [2] | Inhibition of 5-hydroxytryptamine uptake, potency ratio compared with imipramine [2] | Potency in 5-hydroxytryptamine tests (in words, versus imipramine) [2] | Inhibition of noradrenaline uptake (noradrenaline uptake)
1 | Cn1c(=O)c2c(ncn2CCCNCCc2c[nH]c3ccc(O)cc23)n(C)c1=O [Example 1, 5-hydroxy-N-[3-(theophyllin-7-yl)propyl]tryptamine hydrochloride hemihydrate] | > 167 | very selective in its action | very potent inhibitor of 5-HT uptake | 60 nM | > 10000 nM | 44% | 77% | 84% | 4.3 | considerably more potent than imipramine | INACTIVE
2 | Cn1c(=O)c2c(ncn2CCCNCCc2c[nH]c3ccccc23)n(C)c1=O [Example 3, N-[3-theophyllin-7-yl)propyl]tryptamine hydrochloride] | – | – | – | – | – | 4% | 43% | 77% | 0.8 | about the same order of potency as the standard inhibitor imipramine | INACTIVE
3 | CN(C)CCCN1c2ccccc2CCc2ccccc21 [imipramine, reference compound] | 0.5 | – | – | 100 nM | 50 nM | – | – | – | – | – | –
